Experimental data as given in PubChem BioAssay (NCI).
Where “and” joins values, the source holds several entries; their conditions need not be identical. Equal entries are not always repeated.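 Results reflect a 48-hour exposure of cells in 96-well plates to compound at five concentrations. The concentration for 50% growth inhibition is given as GI50. TGI denotes the concentration required for complete inhibition of growth.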

Assays:
Assay in all cases: inhibition of tumour cell growth, NCI panel, 48 h
NCI/ADR-RES ovarian = test system: NCI/ADR-RES ovarian
T-47D breast = test system: T-47D breast
BT-549 breast = test system: BT-549 breast
RXF-631 renal = test system: RXF-631 renal
M19-MEL melanoma = test system: M19-MEL melanoma
DLD-1 colon = test system: DLD-1 colon
DMS 273 small cell lung = test system: DMS 273 small cell lung
MDA-N = test system: MDA-N
XF 498 CNS = test system: XF 498 CNS

Row | SMILES | GI50 (NCI/ADR-RES ovarian) | TGI (NCI/ADR-RES ovarian) | GI50 (T-47D breast) | TGI (T-47D breast) | GI50 (BT-549 breast) | TGI (BT-549 breast) | TGI (RXF-631 renal) | TGI (M19-MEL melanoma) | TGI (DLD-1 colon) | TGI (DMS 273 small cell lung) | TGI (MDA-N) | TGI (XF 498 CNS)
1 | Fc1ccc(-c2nc(-c3nc4ccc(Cl)cc4[nH]3)cc3c2[nH]c2ccccc23)cc1 | 3.42 µM | 28.3 µM | 2.68 µM | 20.9 µM | 4.62 µM | 18.7 µM |  |  |  |  |  | 
2 | CCOC(=O)CC(=O)ON(C)C(=O)Cc1ccccc1 |  |  |  |  |  |  | > 100 µM | > 100 µM | > 100 µM |  |  | 
3 | Cc1ccc2nc3c(Cl)cc(=O)cc-3sc2c1 |  |  |  |  |  |  | > 100 µM | 36 µM |  | 39.3 µM |  | 
4 | O=C(CC(=O)N1N=C(n2ccc3ccccc32)CC1c1ccccc1)Nc1cccc(Cl)c1 (centres undefined) |  |  |  |  |  |  | > 100 µM | > 100 µM | > 100 µM | > 100 µM |  | 
5 | CN(C)CC(C(=O)c1ccccc1)c1ccccc1 (centres undefined) | 2.59 µM | 8.37 µM | 2.03 µM | 5.73 µM | 1.87 µM | 4.39 µM |  |  |  |  |  | 
6 | Nc1nc(-c2ccccc2)c(-c2ccccc2)c(-c2nc(N)nc(-c3ccccc3)c2-c2ccccc2)n1 |  | > 100 µM |  | > 100 µM |  | > 100 µM |  |  |  |  | > 100 µM | 
7 | COc1cc(/C=C/C(=O)C(=Cc2ccc(F)c(F)c2)C(=O)/C=C/c2ccc(O)c(OC)c2)ccc1O | 4.06 µM | > 100 µM | 2.31 µM | 7.7 µM | 2.68 µM | 7.13 µM |  |  |  |  |  | 
8 | COC(=O)[C@]12CC[C@@H](C)[C@H](C)[C@@H]1C1=CC[C@@H]3[C@@]4(C)C[C@@H](OC(=O)c5ccco5)[C@H](O)[C@@](C)(CO)[C@@H]4[C@H](O)C[C@@]3(C)[C@]1(C)CC2 | 2.59 µM | 7.12 µM | 3.13 µM | 9.17 µM | 2.41 µM | 5.21 µM |  |  |  |  |  | 
9 | C=CCN1C(=O)/C(=c2\sc3n(c2=O)C2C(NN=3)N(CC)C(=O)N2CC)c2ccccc21 (centres undefined) | 0.434 µM | > 40.5 µM | 0.438 µM | > 100 µM | 1.65 µM | > 75.6 µM |  |  |  |  |  | 
10 | CSC1=Nc2c(c(C)c(-c3ccccc3)n2COC(CO)CO)C2=NC(=O)C(C)N12 (centres undefined) | > 100 µM | > 100 µM | > 100 µM | > 100 µM | > 100 µM | > 100 µM |  |  |  |  |  | 
11 | O=C(c1cc2ccccc2[nH]1)C(O)(c1cc2ccccc2[nH]1)c1cc2ccccc2[nH]1 |  |  |  |  |  |  | > 246 µM |  | > 246 µM | > 246 µM |  | 
12 | N/C(=N\O)c1ncc(-c2ccc(C(F)(F)F)cc2)c(NC2CCCCCC2)n1 | 4.41 µM and 0.593 µM | 13.4 µM | 6.89 µM and 3.59 µM | 16.8 µM | 4.54 µM | 18.2 µM |  |  |  |  |  | 
13 | CCOc1ccc(Cc2nccc3cc(OCC)c(OCC)cc23)cc1OCC | 4.87 µM | 39.6 µM | 1.47 µM | 15 µM | 5.16 µM | 19.1 µM |  |  |  |  |  | 
14 | NC(=O)c1ccccc1NC(=O)C(=O)C(C(=O)c1ccc2ccccc2c1)C1OC(=O)c2ccccc21 (centres undefined) |  |  |  |  |  |  |  | 25.5 µM |  | 38.5 µM |  | 12.8 µM
15 | CCCNc1nc(N(C)O)nc(N(C)O)n1 | 2.15 µM | > 100 µM | 3.9 µM | > 100 µM | 3.34 µM | > 29.9 µM |  |  |  |  |  | 
16 | O=C(CCCn1c2c(sc3ncccc32)c(=O)n2nnc(-c3ccccc3)c12)NCCc1cnc[nH]1 | 34.1 µM | > 100 µM | 1.87 µM | 21.6 µM |  |  |  |  |  |  |  | 
17 | COc1ccc(/C=C/C(=O)c2sc(N)nc2C)cc1 |  |  |  |  |  |  |  | > 100 µM | > 100 µM | > 100 µM |  | 

Row | SMILES | GI50 (NCI/ADR-RES ovarian) | TGI (NCI/ADR-RES ovarian) | GI50 (T-47D breast) | TGI (T-47D breast) | GI50 (BT-549 breast) | TGI (BT-549 breast) | TGI (RXF-631 renal) | TGI (M19-MEL melanoma) | TGI (DLD-1 colon) | TGI (DMS 273 small cell lung) | TGI (MDA-N) | TGI (XF 498 CNS)
18 | Cc1ccc(/C=C(\C#N)n2nnc3cc(Cl)c(Cl)cc32)cc1 | 2.22 µM | 7.61 µM |  |  | 1.81 µM | 4.59 µM |  |  |  |  |  | 
19 | Cc1cc(C)nc(NS(=O)(=O)c2ccc(Nc3c4ccccc4nc4c(C(=O)NCCN(C)C)ccc(Cl)c34)cc2)n1 |  |  |  |  |  |  |  | 7.84 µM | 13.4 µM |  |  | 17.3 µM
20 | Cc1ccc(-n2c3c(c4c(CN5CCCCC5)c(O)ccc42)CCc2ccccc2C3=O)cc1 | 71.2 µM | > 100 µM | > 100 µM | > 100 µM | > 100 µM | > 100 µM |  |  |  |  |  | 
21 | COc1cc2cc3c4c(cc(OC)c(OC)c4c2cc1OC)CCN3C(=O)CCCC(=O)O |  |  |  |  |  |  |  | > 100 µM | > 100 µM | > 100 µM |  | 
22 | O=C1NC(=NCc2cccs2)SC1Cc1ccc2ncccc2c1 (centres undefined) | > 25 µM | > 25 µM | 24.9 µM | > 25 µM | 20.5 µM | > 25 µM |  |  |  |  |  | 
23 | CN(C)CCNC(=O)c1cccc2nc3ccc4ccccc4c3nc12 |  |  |  |  |  |  |  | 0.224 µM | 1.46 µM | 0.246 µM |  | 
24 | CC(C)c1cc(C(C)C)c(S(=O)(=O)NN)c(C(C)C)c1 |  |  |  |  |  |  |  | > 100 µM | > 100 µM | > 100 µM |  | 
25 | COC1=C(OC)C(=O)C(/C=C(\C)C(=O)O)=C(C)C1=O | > 100 µM | > 100 µM | > 100 µM | > 100 µM | > 100 µM | > 100 µM |  |  |  |  |  | 
26 | CCC(=O)C1=C(OC(C)=O)C2Cc3c(n(C)c4ccccc34)C(C1)N2C (centres undefined) |  |  |  |  |  |  | 67.2 µM | > 100 µM | 74.5 µM | 41.7 µM |  | 
27 | C=CCC(C(=O)OC)C1(C(=O)OC)c2[nH]c3ccccc3c2CCN1Cc1ccccc1 (centres undefined) |  |  |  |  |  |  |  | > 100 µM | > 100 µM |  |  | 
28 | CC1C2Cc3ccc(O)cc3C1(C)CCN2C (centres undefined) |  | > 100 µM |  | > 100 µM |  |  |  |  |  |  | > 100 µM | 
29 | Oc1nc(NCCc2ccccc2)sc1/C=C1\C=Nc2ncccc21 | 12.2 µM and 8.3 µM | 50 µM and > 100 µM | 2.15 µM and 3.22 µM | 9.09 µM and 8.2 µM | 1.23 µM and 1.35 µM | 3.26 µM and 3.34 µM |  |  |  |  |  | 
30 | Nc1nc(N)c2cc(CNc3ccc(Cl)c(Cl)c3)ccc2n1 | 0.802 µM | 3.25 µM | 1.54 µM | 2.9 µM | 1.4 µM | 2.78 µM |  |  |  |  |  | 
31 | O=C(Oc1cccnc1)c1ccccc1Nc1ccnc(C(F)(F)F)c1 | 0.186 µM | > 100 µM | 23 µM | 51.5 µM | 0.104 µM | 2.18 µM |  |  |  |  |  | 
32 | CCCCCCN(CCCCCC)CCCNc1nccc2ccccc12 | 1.6 µM | 3.37 µM |  |  | 1.79 µM | 3.47 µM |  |  |  |  |  | 
33 | CC(C)(O)[C@@H]1CCC(C)([C@H]2[C@@H](O)CC3(C)C4CC(OC5OC(CO)C(O)C(O)C5O)C5C(C)(C)[C@@H](OC6OCC(O)C(O)C6O)CC[C@@]56C[C@@]46CC[C@]23C)O1 (some centres undefined) |  |  |  |  |  |  |  | > 100 µM | > 100 µM | > 100 µM |  | > 100 µM
34 | CCOc1ccccc1NC(=O)C(=O)CC(=O)C1=C(C)Nc2ccccc2S1 |  |  |  |  |  |  |  | > 100 µM | > 100 µM | > 100 µM |  | > 100 µM
